# According to article PMC8303674, “Discovery of a Novel Triazolopyridine Derivative as a Tankyrase Inhibitor” (International Journal of Molecular Sciences, 2021):
# Assays:
# TNKS2 (tankyrase 2) = biological target: T1, TNKS2 (tankyrase 2) (Homo sapiens, UniProt Q9H2K2); experiment: cell-free colorimetric TNKS2 activity assay (BPS Bioscience); format: biochemical
# T1 sequence (Q9H2K2 1-1166): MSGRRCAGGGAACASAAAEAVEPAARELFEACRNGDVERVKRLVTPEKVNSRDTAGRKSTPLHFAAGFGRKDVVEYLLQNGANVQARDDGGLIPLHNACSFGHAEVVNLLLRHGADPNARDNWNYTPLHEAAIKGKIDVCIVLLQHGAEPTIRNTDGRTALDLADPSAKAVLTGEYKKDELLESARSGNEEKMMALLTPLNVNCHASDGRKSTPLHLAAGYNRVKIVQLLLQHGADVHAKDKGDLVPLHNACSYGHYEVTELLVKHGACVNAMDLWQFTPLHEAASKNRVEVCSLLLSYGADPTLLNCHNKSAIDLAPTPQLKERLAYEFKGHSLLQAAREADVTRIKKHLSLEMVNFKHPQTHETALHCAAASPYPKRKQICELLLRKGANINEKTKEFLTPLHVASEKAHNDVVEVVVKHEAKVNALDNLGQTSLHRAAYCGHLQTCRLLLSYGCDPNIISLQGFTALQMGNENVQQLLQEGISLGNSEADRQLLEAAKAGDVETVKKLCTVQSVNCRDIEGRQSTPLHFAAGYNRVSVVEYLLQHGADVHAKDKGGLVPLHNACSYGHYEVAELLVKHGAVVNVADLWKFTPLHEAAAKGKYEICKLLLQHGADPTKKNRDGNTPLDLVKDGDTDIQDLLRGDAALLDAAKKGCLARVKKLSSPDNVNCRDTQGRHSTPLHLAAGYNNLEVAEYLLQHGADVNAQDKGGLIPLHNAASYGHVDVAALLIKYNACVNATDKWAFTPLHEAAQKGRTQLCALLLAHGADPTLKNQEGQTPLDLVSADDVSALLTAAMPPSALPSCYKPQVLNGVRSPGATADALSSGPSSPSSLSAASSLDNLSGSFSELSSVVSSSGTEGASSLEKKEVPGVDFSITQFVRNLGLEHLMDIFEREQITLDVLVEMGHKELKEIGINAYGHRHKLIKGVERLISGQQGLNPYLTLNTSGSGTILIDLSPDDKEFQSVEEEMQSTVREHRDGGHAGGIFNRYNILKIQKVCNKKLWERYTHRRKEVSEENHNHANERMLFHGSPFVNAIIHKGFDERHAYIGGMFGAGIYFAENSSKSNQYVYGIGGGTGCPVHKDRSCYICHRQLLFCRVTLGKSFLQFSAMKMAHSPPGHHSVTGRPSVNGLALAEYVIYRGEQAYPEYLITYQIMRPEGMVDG
# Excerpt: cell-free colorimetric TNKS2 activity assay (BPS Bioscience) on TNKS2 (tankyrase 2) | IC50 (μM) of TI-12403 against TNKS1 and TNKS2.
# TNKS1 (tankyrase) = biological target: T2, TNKS1 (tankyrase) (Homo sapiens, UniProt O95271); experiment: cell-free colorimetric TNKS1 activity assay (BPS Bioscience); format: biochemical
# T2 construct: gene TNKS
# Excerpt: cell-free colorimetric TNKS1 activity assay (BPS Bioscience) on TNKS1 (tankyrase) | IC50 (μM) of TI-12403 against TNKS1 and TNKS2.
# T2 sequence (O95271 whole entry): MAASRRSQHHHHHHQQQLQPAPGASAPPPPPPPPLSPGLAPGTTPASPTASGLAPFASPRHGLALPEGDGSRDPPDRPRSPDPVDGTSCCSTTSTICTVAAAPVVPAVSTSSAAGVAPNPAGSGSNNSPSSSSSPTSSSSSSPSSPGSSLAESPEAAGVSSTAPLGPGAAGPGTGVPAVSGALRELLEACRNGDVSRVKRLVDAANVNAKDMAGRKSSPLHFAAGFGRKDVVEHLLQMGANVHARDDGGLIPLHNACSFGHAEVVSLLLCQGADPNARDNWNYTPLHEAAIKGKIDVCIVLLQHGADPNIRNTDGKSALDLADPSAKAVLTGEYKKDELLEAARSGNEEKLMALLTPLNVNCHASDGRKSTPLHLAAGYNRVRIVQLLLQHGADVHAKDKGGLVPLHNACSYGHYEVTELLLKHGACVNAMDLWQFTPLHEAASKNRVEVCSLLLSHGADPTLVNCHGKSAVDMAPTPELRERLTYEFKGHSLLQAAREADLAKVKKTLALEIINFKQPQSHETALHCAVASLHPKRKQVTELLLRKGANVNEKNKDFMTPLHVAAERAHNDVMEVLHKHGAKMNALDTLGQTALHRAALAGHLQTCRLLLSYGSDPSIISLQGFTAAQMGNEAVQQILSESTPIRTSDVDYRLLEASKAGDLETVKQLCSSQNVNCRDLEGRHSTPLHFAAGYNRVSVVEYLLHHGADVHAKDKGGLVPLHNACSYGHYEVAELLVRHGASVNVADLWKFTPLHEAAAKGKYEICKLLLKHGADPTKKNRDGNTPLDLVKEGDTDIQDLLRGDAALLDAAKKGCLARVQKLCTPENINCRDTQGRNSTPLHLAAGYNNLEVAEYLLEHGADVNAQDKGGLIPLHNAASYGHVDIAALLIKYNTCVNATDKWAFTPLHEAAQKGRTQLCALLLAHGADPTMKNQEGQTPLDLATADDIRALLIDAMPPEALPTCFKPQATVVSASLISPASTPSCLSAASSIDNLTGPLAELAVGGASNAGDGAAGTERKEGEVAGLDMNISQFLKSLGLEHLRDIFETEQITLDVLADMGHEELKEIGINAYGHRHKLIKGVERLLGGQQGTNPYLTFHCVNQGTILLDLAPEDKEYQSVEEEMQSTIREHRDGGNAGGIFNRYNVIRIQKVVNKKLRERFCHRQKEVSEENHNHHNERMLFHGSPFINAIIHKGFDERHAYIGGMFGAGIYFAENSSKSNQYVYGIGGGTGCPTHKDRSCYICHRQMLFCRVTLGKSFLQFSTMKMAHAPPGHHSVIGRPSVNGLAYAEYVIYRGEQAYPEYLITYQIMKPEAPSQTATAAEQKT
smiles,measurement,setting,value
"N#Cc1ccccc1N1CCC(C(=O)Nc2nnc3ccccn23)CC1 [TI-12403, N-([1,2,4]triazolo[4,3-a]pyridin-3-yl)-1-(2-cyanophenyl)piperidine-4-carboxamide]",IC50,TNKS2 (tankyrase 2),60 nM
same,IC50,TNKS1 (tankyrase),29 nM
